Experimental data as given in patent US20050119240A1, “1-methyl-20-epi-vitamin d derivative” (priority 2000, published 2005).

Biological target: T1, Bovine thymus 1α,25-dihydroxyvitamin D3 receptor (VDR) (Bos taurus, UniProt Q28037)
T1 sequence (Q28037 1-426): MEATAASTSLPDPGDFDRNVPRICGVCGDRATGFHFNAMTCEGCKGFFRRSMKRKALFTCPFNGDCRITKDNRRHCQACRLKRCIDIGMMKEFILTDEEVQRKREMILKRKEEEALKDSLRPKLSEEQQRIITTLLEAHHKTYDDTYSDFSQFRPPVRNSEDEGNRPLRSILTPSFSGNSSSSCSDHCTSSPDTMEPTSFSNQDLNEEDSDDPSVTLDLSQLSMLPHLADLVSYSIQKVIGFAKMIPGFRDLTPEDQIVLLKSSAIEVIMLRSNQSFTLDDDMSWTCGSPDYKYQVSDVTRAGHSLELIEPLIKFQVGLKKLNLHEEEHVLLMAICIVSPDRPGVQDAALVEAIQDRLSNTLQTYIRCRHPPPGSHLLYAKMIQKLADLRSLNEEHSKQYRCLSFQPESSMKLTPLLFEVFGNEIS
Conditions: relative value with that of 1α,25-dihydroxyvitamin D3 taken as 100; [3H]-1α,25-dihydroxyvitamin D3 0.1 nM, incubation overnight at 4° C.

Row | VDR binding properties | SMILES
1 | 1 | C=C1/C(=C\C=C2/CCC[C@]3(C)[C@@H]([C@@H](C)CCCC(C)(C)O)CC[C@@H]23)C[C@H](O)C[C@]1(C)O [Compound 4, (5Z,7E)-(1S,3S,20S)-1Methyl-9,10-seco-5,7,10(19)-cholestatriene-1,3,25-triol]
2 | 1 | C=C1/C(=C\C=C2/CCC[C@@]3(C)C2CCC3[C@@H](C)CCCC(C)(C)O)C[C@@H](O)C[C@]1(C)O (stereo partly drawn) [Compound 6, (5Z,7E)-(1S,3R,20S)-1-Methyl-9,10-seco-5,7,10(19)-cholestatriene-1,3,25-triol]
3 | 0.017 | C=C1C(=CC=C2CCCC3(C)C2CCC3C(C)CCCC(C)(C)O)CC(O)CC1(C)O [Compound 9, (5Z,7E)-(1R,3R,20S)-1-Methyl-9,10-seco-5,7,10(19)-cholestatriene-1,3,25-triol]
4 | 0.004 | C=C1/C(=C\C=C2/CCC[C@@]3(C)C2CCC3[C@@H](C)CCCC(C)(C)O)C[C@H](O)C[C@@]1(C)O (stereo partly drawn) [Compound 11, (5Z,7E)-(1R,3S,20S)-1-Methyl-9,10-seco-5,7,10(19)-cholestatriene-1,3,25-triol]
